US20210275606A1, “COMPOSITIONS COMPRISING BACTERIAL STRAINS” (4D Pharma Research Limited, priority 2018, published 2021)
“And” between values parts separate entries of the source, which are not always exact repeats. Identical values can stand only once. Counter-ions that a name gives are not always drawn.

How the values were obtained:
[1] = test system: graft versus host disease (GVHD) induced in Balb/C mice; experiment: Graft versus host disease (GVHD) induced in Balb/C mice; assay type: in vivo, mouse; conditions: for mean body weight over the course of the study: compared with Group 4 (PBS, TBI + allogeneic transfer), daily dosing Days -14 to 30
Text: Male Balb/C mice (BALB/cAnNCrl; 6-8 weeks old; n=125) with an average starting body weight (±SEM) of 20.67±0.11 g were obtained from Charles River Laboratories (Wilmington, Mass.). An additional n=75 male C57Bl/6 (C57Bl/6NCrl; 6-8 weeks old) were obtained from the same vendor. Animals were acclimatized prior to study commencement. During this period, the animals were observed daily in order to reject any that presented in poor condition.
Animals were randomized into 5 groups at the start of the study. Each group comprised between 8 and 12 mice. Each group was further sub-divided into cohorts A and B (n=4-6 mice per group per cohort); cohorts had staggered disease timelines.
All animals were weighed and randomized by weight into treatment groups prior to study start. Prior to GVHD induction on Days −1 and 0, all animals were pre-treated (P0) with PBS (Groups 1-4), bacterial strain 43043 (Group 5), or Butyrate salt control (Group 6) daily starting on Day −14. Butyrate was used as a positive control as butyrate deficit has been identified in the gut of GVHD patients. Treatments were administered to groups at random, and group treatments were alternated daily to prevent the same groups from being treated at the same time each day. Once test article dosing had begun, care was taken to minimize group cross-contamination: gloves were changed by the technician between treatment groups, and were sprayed with 70% isopropyl alcohol between each cage of the same group.
GVHD was induced in n=84 Balb/C mice (Groups 4-10) using a single acute dose of 8 Gy of total body irradiation (TBI) on Day −1. On Day 0, these recipient mice were given an intravenous injection of a combination of T cell depleted bone marrow cells and splenic cells from donor C57Bl/6 mice in PBS. Bone marrow cells were isolated using standard flushing practices, and were T cell depleted using the cell surface T cell antigen CD3, with a CD3-biotin kit (Miltenyi Biotec catalog 130-094-973). Splenocytes were isolated using Miltenyi GentleMACS Dissociators. Animals in Group 1 served as naïve controls and received neither TBI nor cell transfer. […] Animals in Group 3 served as syngeneic adoptive transfer controls; these animals received 8 Gy of TBI on Day −1, and an intravenous injection of a combination of T cell depleted bone marrow cells and splenic cells from donor Balb/C mice in sterile PBS.
Daily test article dosing continued for the duration of the study (Days −14 to 30). Animal survival was recorded daily, as an indication of GVHD severity. […] The GVHD score was assessed by a standard scoring system based on five criteria (Table 21): percentage of weight change, posture (hunching), activity, fur texture, and skin integrity (maximum score=10). […]

[2] = test system: DSS-induced colitis mouse model; experiment: DSS-induced colitis mouse model, ileum histology; assay type: in vivo; parameters: key to Erosion (epithelial cell damage) / Depletion of goblet cells / Edema / Leucocytes Infiltration: 0: None; Minimal <10%; Mild 10-25%; 3: Moderate 26-50%; 4: Marked >50%; COLITIS SCORING (sum) / COLITIS SCORING mean ± SEM: scale not given here; conditions: Day 7; for COLITIS SCORING mean ± SEM: group mean, n = 9, 3% DSS; for Depletion of goblet cells / Edema / Erosion (epithelial cell damage) / Leucocytes Infiltration: ileum histology score 0-4, individual mouse; for COLITIS SCORING (sum): sum of the four ileum histology scores, individual mouse
Method: The objective of this study was to determine the prophylactic efficacy of R. intestinalis strain 43043 in a DSS-induced colitis mouse model, upon repeated oral administration.
Tacrolimus was dosed at 1 mg/kg/day
Valproic acid was dosed at 200 mg/kg/day
PBS, YCFA and bacterial cultures were dosed at 200 μL/day
Each of sixty three, 6 week old healthy male C57BL/6J mice were obtained from Charles River (France) and individually identified and labelled with a specific code. Each treatment group (9 animals/group) were housed in three different cages.
Days −7 to Day −1: Treatment with bacteria and reference substances according the treatment table above • Once daily oral administration of PBS, YCF A or Bacteria—200 μL per mouse • Once daily oral administration of Valproic acid at 200 mg/kg/day under a volume of 10 mL/kg From Day O to Day+7: DSS administration • Administration of 3% DSS in the drinking water From Day O to Day+6: Treatment with bacteria and reference substances • Once daily oral administration of PBS, YCFA or Bacteria—200 μL per mouse • Once daily oral administration of Valproic acid—200 mg/kg in sterile distilled water—10 mL/kg • Once daily SC administration of Tacrolimus—1 mg/kg in sterile 1% Tween80, 0.9% NaCl—10 mL/kg Day+7: Sacrifice of all groups and tissue harvesting • Euthanasia of animals was performed under gas anesthesia (Isoflurane) followed by exsanguination and cervical dislocation. Euthanasia methods used are those recommended for mice and rats by European directive 20 I 0/63/CE and the procedure describing euthanasia methods was approved by IACUC. • Laparotomy and ileum harvesting, just upstream of the caecum (from 0.5 cm and on)—all tissue harvested from exactly the same area between all mice: • 1.5 cm swiss-rolled ileum was harvested for histology, the closest to the caecum
Ileum Swiss-rolls specimens were embedded in paraffin and sections of 5 μm thickness were cut and mounted on SuperFrost Ultra plus glass slides. HP (Hematoxylin-Phloxin) staining & AB-PAS (Alcian Blue-Periodic Acid Schiff) staining were performed to visualize histomorphologic changes. A scoring based on edema, erosion, loss of crypts/goblet cells and infiltrates was established on each animal, using the criteria in the following table: […]

HDAC [3] = experiment: Global HDAC activity analysis in HT-29 cells; assay type: cell-based; conditions: for inhibition of total HDAC activity: whole HT-29 cells and HT-29 cell lysate tested, sentence does not say which
Method: Pure cultures of 43043 bacteria were grown anaerobically in YCFA broth until they reached their stationary growth phase. Cultures were centrifuged at 5,000×g for 5 minutes and the cell-free supernatant (CFS) was filtered using a 0.2 μM filter (Millipore, UK). 1 mL aliquots of the CFS were stored at −80° C. until use. Sodium butyrate, hexanoic and valeric acid were obtained from Sigma Aldrich (UK) and suspensions were prepared in YCFA broth.
(§1) Whole cells and cell free supernatants of stationary phase 43043 cultures were isolated by centrifugation and filtering in a 0.22 uM filter. HT-29 cells were used 3 days' post confluence and stepped down in 1 mL DTS 24 hours prior to commencement of the experiment. The HT-29 cells were challenged with 10% cell free supernatant diluted in DTS and this was left to incubate for 48 hours. […] were then extracted using the Sigma Aldrich Nuclease extraction kit and samples were snap frozen prior to HDAC activity measurement. HDAC activity kit was assessed fluorometrically using the Sigma Aldrich (UK) kit.
(§2) To investigate which metabolites were responsible for the strain-induced HDAC inhibition, different concentrations of hexanoic acid, valeric acid and sodium butyrate were measured for their HDAC inhibition on whole HT-29 cells and on HT-29 cell lysate.

HDAC [4] = experiment: HDAC inhibition on HT-29 cell lysate; assay type: biochemical
Method: as §1, §2

CCCC(=O)O [Butyrate salt]
Mean colitis severity scores (endoscopy) ([1]; Day 29, as compared to naïve mice (Group 1)): increased
mean GVHD scores ([1]; Days 0 to 30, AUC, compared to Group 3 (syngeneic transfer), with and without scores carried forward): significantly increased mean GVHD scores as compared to Group 3
mean body weight over the course of the study [1]: No significant differences in mean body weight

C=CC[C@@H]1/C=C(\C)C[C@H](C)C[C@H](OC)[C@H]2O[C@@](O)(C(=O)C(=O)N3CCCC[C@H]3C(=O)O[C@H](/C(C)=C/[C@@H]3CC[C@@H](O)[C@H](OC)C3)[C@H](C)[C@@H](O)CC1=O)[C@H](C)C[C@@H]2OC [Tacrolimus]
leukocyte infiltration in the ileum ([2]; group comparison in text, 3% DSS): reduced leukocyte infiltration comparable to controls
COLITIS SCORING mean ± SEM [2]: 0.44 ±0.08
Depletion of goblet cells ([2]; 3% DSS): 0
Edema ([2]; 3% DSS): 0
Erosion (epithelial cell damage) ([2]; 3% DSS): 0
Leucocytes Infiltration ([2]; 3% DSS): 0 (6×) and 2 (Mild 10-25%) and 1 (Minimal <10%) (2×)
COLITIS SCORING (sum) ([2]; 3% DSS): 0 (6×) and 2 and 1 (2×)
mean body weight over the course of the study [1]: same trend was observed

CCCCC(=O)O [Valeric acid, valeric acid]
inhibition of total HDAC activity (HDAC [3]): inhibited total HDAC activity

CCCC(CCC)C(=O)O [Valproic acid, Valproic Acid]
COLITIS SCORING mean ± SEM [2]: 0.67 ± 0.10
Depletion of goblet cells ([2]; 3% DSS): 0
Edema ([2]; 3% DSS): 0
Erosion (epithelial cell damage) ([2]; 3% DSS): 0
Leucocytes Infiltration ([2]; 3% DSS): 2 (Mild 10-25%) (2×) and 1 (Minimal <10%) (2×) and 0 (5×)
COLITIS SCORING (sum) ([2]; 3% DSS): 2 (2×) and 1 (2×) and 0 (5×)

CCCCCC(=O)O [hexanoic acid]
inhibition of total HDAC activity (HDAC [3]): did show significant inhibitory activity

CCCC(=O)[O-].[Na+] [sodium butyrate, Sodium butyrate]
inhibition of HDAC activity (HDAC [3]; on whole HT-29 cells): significant (P<0.05) inhibition of HDAC activity
inhibition of HDAC activity (HDAC [4]): significant (P<0.05) inhibition of HDAC activity
